Test results published in patent US12583861B2, “Derivatives of imidazo[4,5-d]pyridazine, their preparation and their therapeutic application” (SANOFI, priority 2021, dated 2026).
Counter-ions that a name gives are not always drawn. Like-named read-outs stand apart in the source and are kept apart here.

Assays:
human TLR8 = molecular target: T1, human TLR8 (Homo sapiens, UniProt Q9NR97); assay: HEK-Blue hTLR8 reporter cell assay (SEAP, NF-kB/AP-1) for stimulation of human TLR8; assay type: cell-based; details: HEK-Blue hTLR8 cells; for EC50: 24 h incubation, SEAP readout, read-out: TLR8_EC50
T1 construct: host or cells: HEK293 (HEK-Blue hTLR8)
T1 sequence (Q9NR97 27-1041): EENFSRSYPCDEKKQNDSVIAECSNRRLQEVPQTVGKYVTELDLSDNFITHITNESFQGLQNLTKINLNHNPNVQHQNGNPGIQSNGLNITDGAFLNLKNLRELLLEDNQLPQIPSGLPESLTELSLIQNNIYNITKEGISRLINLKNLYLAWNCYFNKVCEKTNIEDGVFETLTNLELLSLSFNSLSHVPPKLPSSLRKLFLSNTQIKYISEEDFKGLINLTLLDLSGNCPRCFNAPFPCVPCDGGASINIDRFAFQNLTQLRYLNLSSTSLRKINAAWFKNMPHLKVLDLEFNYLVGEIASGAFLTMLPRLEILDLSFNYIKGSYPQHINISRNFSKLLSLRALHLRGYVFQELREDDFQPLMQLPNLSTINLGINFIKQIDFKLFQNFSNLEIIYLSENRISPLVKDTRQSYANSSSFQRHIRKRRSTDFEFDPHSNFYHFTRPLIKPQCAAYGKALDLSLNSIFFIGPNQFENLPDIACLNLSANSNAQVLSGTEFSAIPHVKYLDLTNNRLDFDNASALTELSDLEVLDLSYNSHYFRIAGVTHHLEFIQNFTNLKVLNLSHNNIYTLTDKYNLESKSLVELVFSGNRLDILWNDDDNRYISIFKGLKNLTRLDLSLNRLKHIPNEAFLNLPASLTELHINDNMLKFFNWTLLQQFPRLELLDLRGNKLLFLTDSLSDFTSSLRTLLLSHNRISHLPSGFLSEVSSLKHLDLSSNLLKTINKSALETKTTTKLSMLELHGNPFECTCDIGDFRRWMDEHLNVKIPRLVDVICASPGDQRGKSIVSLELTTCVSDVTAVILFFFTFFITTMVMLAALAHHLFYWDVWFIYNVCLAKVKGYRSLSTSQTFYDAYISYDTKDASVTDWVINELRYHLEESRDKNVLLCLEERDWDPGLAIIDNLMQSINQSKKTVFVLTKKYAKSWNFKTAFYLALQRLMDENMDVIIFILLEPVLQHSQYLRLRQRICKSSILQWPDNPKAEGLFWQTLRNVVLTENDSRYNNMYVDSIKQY
Method in brief: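 HEK293 cells carrying hTLR8 and a SEAP reporter driven by NF-κB/AP-1 sites were seeded at 3.10E4 cells/well and held 18 to 24 h at 37° C., 5% CO2 before compound addition. Supernatant SEAP measured with QUANTI-Blue™.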

human TLR7 = molecular target: T2, human TLR7 (Homo sapiens, UniProt Q9NYK1); assay: HEK-Blue hTLR7 reporter cell assay (SEAP, NF-kB/AP-1) for stimulation of human TLR7; assay type: cell-based; details: HEK-Blue hTLR7 cells; for EC50: read-out: TLR7_EC50
T2 construct: host or cells: HEK293 (HEK-Blue hTLR7)
T2 sequence (Q9NYK1 27-1049): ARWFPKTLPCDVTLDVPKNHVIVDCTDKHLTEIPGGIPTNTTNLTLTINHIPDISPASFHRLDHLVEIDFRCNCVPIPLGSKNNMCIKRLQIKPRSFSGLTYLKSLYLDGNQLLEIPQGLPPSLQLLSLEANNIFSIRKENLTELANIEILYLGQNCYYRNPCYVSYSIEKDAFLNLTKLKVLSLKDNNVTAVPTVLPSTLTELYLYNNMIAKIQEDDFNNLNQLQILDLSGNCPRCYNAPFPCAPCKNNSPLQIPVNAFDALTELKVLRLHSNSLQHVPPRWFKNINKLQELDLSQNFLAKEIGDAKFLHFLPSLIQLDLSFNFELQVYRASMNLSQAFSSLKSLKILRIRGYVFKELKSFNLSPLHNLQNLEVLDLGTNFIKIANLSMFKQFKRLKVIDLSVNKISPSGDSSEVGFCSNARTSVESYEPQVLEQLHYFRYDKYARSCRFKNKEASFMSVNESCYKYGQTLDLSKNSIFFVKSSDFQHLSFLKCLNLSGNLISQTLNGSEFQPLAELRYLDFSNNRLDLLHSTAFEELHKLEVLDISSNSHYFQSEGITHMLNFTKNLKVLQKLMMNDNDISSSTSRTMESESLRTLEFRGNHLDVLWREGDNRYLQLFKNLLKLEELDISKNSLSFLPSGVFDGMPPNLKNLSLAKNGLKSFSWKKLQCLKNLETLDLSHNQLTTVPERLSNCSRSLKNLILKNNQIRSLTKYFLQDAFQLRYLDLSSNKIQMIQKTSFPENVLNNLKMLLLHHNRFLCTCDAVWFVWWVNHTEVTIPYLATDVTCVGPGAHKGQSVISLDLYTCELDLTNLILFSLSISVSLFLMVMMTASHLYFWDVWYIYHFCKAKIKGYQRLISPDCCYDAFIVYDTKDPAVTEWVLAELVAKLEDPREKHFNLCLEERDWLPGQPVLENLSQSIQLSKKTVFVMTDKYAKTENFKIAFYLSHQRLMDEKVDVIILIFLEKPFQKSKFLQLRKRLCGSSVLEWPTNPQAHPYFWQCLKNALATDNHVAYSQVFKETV
Method in brief: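 HEK293 cells expressing hTLR7 with NF-κB/AP-1-driven SEAP reporter, seeded 3.10E4 cells/well, pre-incubated 18–24 h, then exposed to 3-fold compound dilutions (0.01–20 μM) for 24 h at 37 °C. Supernatant SEAP read with QUANTI-Blue; EC50 as concentration giving 50% activation.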

Row | EC50 (human TLR8) | EC50 (human TLR7; 24 h incubation, SEAP readout) | activation at 20 µM (human TLR8; 24 h, at 20000 nM) | EC50 (human TLR7; μM) | activation at 20 µM (human TLR7; 24 h, at 20000 nM) | SMILES
1 | > 20000 nM | 2.21 µM |  |  |  | CCCCc1nc2c(N)nnc(OC3CC[S+]([O-])C3)c2n1Cc1ccc(OC)cc1 (single isomer, unassigned; isomer a) [Compound 65, 3-((4-amino-2-butyl-1-(4-methoxybenzyl)-1H-imidazo[4,5-d]pyridazin-7-yl)oxy)tetrahydrothiophene 1-oxide isomer A]
2 | > 20000 nM | 4.39 µM |  |  |  | CCCCc1nc2c(N)nnc(OC(C)C)c2n1CCCCNC1CS(=O)(=O)C1 [Compound 152, 2-butyl-3-[4-[(1,1-dioxothietan-3-yl)amino]butyl]-4-isopropoxy-imidazo[4,5-d]pyridazin-7-amine]
3 | > 20000 nM | 2.88 µM |  |  |  | CCCCc1nc2c(N)nnc(C3=CCCCC3)c2n1Cc1ccc(OC)cc1 [Compound 66, 2-butyl-7-(cyclohex-1-en-1-yl)-1-(4-methoxybenzyl)-1H-imidazo[4,5-d]pyridazin-4-amine]
4 | > 20000 nM | 8.52 µM |  |  |  | CCCCc1nc2c(N)nnc(NCc3ccc(CN)cc3)c2n1C [Compound 87, N7-(4-(aminomethyl)benzyl)-2-butyl-1-methyl-1H-imidazo[4,5-d]pyridazine-4,7-diamine]
5 | 2170 nM | 0.036 µM |  |  |  | CCCCc1nc2c(N)nnc(OC(C)C)c2n1Cc1ccc(CN[C@H]2C[C@H](O)C2)cc1 [Compound 100, (1R,3R)-3-((4-((4-amino-2-butyl-7-isopropoxy-1H-imidazo[4,5-d]pyridazin-1-yl)methyl)benzyl)amino)cyclobutan-1-ol dihydrochloride salt]
6 | 1820 nM | 0.034 µM |  |  |  | CCCCc1nc2c(N)nnc(OC(C)C)c2n1Cc1ccc(CN(C)C)cc1 [Compound 116, 2-butyl-1-(4-((dimethylamino)methyl)benzyl)-7-isopropoxy-1H-imidazo[4,5-d]pyridazin-4-amine]
7 | > 20000 nM | 0.099 µM |  |  |  | CCCCc1nc2c(N)nnc(OC(C)C)c2n1Cc1ccc(CNC(=O)OCC)cc1 [Compound 111, ethyl (4-((4-amino-2-butyl-7-isopropoxy-1H-imidazo[4,5-d]pyridazin-1-yl)methyl)benzyl)carbamate]
8 | 115 nM | 0.392 µM |  |  |  | CCCCc1nc2c(N)nnc(OC(C)C)c2n1Cc1cccc(CN(C)C)c1 [Compound 125, 2-butyl-1-(3-((dimethylamino)methyl)benzyl)-7-isopropoxy-1H-imidazo[4,5-d]pyridazin-4-amine]
9 | 448 nM | 0.019 µM |  |  |  | CCCCc1nc2c(N)nnc(OC(C)C)c2n1Cc1ccc(CNC2CC2)cc1 [Compound 36, 2-butyl-1-(4-((cyclopropylamino)methyl)benzyl)-7-isopropoxy-1H-imidazo[4,5-d]pyridazin-4-amine]
10 | 14700 nM | 0.345 µM |  |  |  | CCCCc1nc2c(N)nnc(OC(C)C)c2n1Cc1ccc(CN(C(C)=O)C2CS(=O)(=O)C2)cc1 [Compound 38, N-(4-((4-amino-2-butyl-7-isopropoxy-1H-imidazo[4,5-d]pyridazin-1-yl)methyl)benzyl)-N-(1,1-dioxidothietan-3-yl)acetamide]
11 | 13600 nM | 2.98 µM |  |  |  | CCCCc1nc2c(N)nnc(NC(C)C)c2n1C [Compound 88, 2-butyl-N7-isopropyl-1-methyl-1H-imidazo[4,5-d]pyridazine-4,7-diamine]
12 | 303 nM | 0.013 µM |  |  |  | CCCCc1nc2c(N)nnc(OC(C)C)c2n1Cc1ccc(CNC2CCOCC2)cc1 [Compound 82, 2-butyl-7-isopropoxy-1-(4-(((tetrahydro-2H-pyran-4-yl)amino)methyl)benzyl)-1H-imidazo[4,5-d]pyridazin-4-amine hydrochloride]
13 | > 6340 nM | 0.163 µM |  |  |  | CCCCc1nc2c(N)nnc(OC(C)C)c2n1Cc1ccc(CNC(=O)OCc2ccc(NC(C)=O)cc2)cc1 [Compound 114, 4-acetamidobenzyl (4-((4-amino-2-butyl-7-isopropoxy-1H-imidazo[4,5-d]pyridazin-1-yl)methyl)benzyl)carbamate]
14 | > 20000 nM | 1.57 µM |  |  |  | CCCCc1nc2c(N)nnc(-c3ccco3)c2n1Cc1ccc(OC)cc1 [Compound 55, 2-butyl-7-(furan-2-yl)-1-(4-methoxybenzyl)-1H-imidazo[4,5-d]pyridazine-4-amine]
15 | 8780 nM | 1.48 µM |  |  |  | CCCCc1nc2c(N)nnc(N3CCCC3)c2n1C [Compound 42, 2-butyl-1-methyl-7-(pyrrolidin-1-yl)-1H-imidazo[4,5-d]pyridazin-4-amine]
16 |  |  | 14.7% | > 20 µM |  | CCCCc1nc2c(N)nnc(C3=CCNC3)c2n1Cc1ccc(CN)cc1 [Compound 144, 1-[[4-(aminomethyl)phenyl]methyl]-2-butyl-7-(2,5-dihydro-1H-pyrrol-3-yl)imidazo[4,5-d]pyridazin-4-amine]
17 | 2290 nM | 0.021 µM |  |  |  | CCCCc1nc2c(N)nnc(OC(C)C)c2n1Cc1ccc(CN2CCNCC2)cc1 [Compound 40, 2-butyl-7-isopropoxy-1-(4-(piperazin-1-ylmethyl)benzyl)-1H-imidazo[4,5-d]pyridazin-4-amine]
18 | 223 nM | 0.421 µM |  |  |  | CCCCc1nc2c(N)nnc(N(C)Cc3ccc(CN(C)CCOC)cc3)c2n1C [Compound 47, 2-butyl-N7-(4-(((2-methoxyethyl)(methyl)amino)methyl)benzyl)-N7,1-dimethyl-1H-imidazo[4,5-d]pyridazine-4,7-diamine]
19 | > 20000 nM |  |  |  | 13% | CCCCc1nc2c(N)nnc(-c3cnn(C)c3)c2n1Cc1ccc(OC)cc1 [Compound 97, 2-butyl-1-(4-methoxybenzyl)-7-(1-methyl-1H-pyrazol-4-yl)-1H-imidazo[4,5-d]pyridazin-4-amine]
20 | 15500 nM | 0.055 µM |  |  |  | CCCCc1nc2c(N)nnc(OC(C)C)c2n1Cc1ccc(CNC(=O)CC)cc1 [Compound 103, N-(4-((4-amino-2-butyl-7-isopropoxy-1H-imidazo[4,5-d]pyridazin-1-yl)methyl)benzyl)propionamide]
21 | > 19000 nM | 0.146 µM |  |  |  | CCCCc1nc2c(N)nnc(CCC(C)C)c2n1Cc1ccc(CN)cc1 [Compound 133, 1-(4-(aminomethyl)benzyl)-2-butyl-7-isopentyl-1H-imidazo[4,5-d]pyridazin-4-amine]
